Assay results: PubChem BioAssay (NCI)
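These data come from cells grown in 96-well plates and exposed to compound for 48 hours at five concentrations. TGI marks complete inhibition of growth.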

Tests used:
Assay in all cases: inhibition of tumour cell growth, NCI panel, 48 h
[1] = test system: MALME-3M melanoma
[2] = test system: OVCAR-3 ovarian
[3] = test system: HCC-2998 colon
[4] = test system: SF-295 CNS
[5] = test system: NCI-H23 lung
[6] = test system: HCT-116 colon
[7] = test system: SNB-19 CNS
[8] = test system: RPMI-8226 leukemia
[9] = test system: RXF 393 renal
[10] = test system: EKVX NSCLC
[11] = test system: HOP-92 NSCLC
[12] = test system: HCT-15 colon
[13] = test system: A549 NSCLC
[14] = test system: NCI/ADR-RES ovarian
[15] = test system: SK-MEL-28 melanoma
[16] = test system: PC-3 prostate
[17] = test system: NCI-H226 lung
[18] = test system: MCF7 breast
[19] = test system: TK-10 renal
[20] = test system: NCI-H460 lung
[21] = test system: UACC-62 melanoma
[22] = test system: IGROV1 ovarian
[23] = test system: A498 renal
[24] = test system: 786-0 renal
[25] = test system: OVCAR-5 ovarian
[26] = test system: SF-268 CNS
[27] = test system: DU-145 prostate
[28] = test system: OVCAR-8 ovarian
[29] = test system: BT-549 breast
[30] = test system: SN12C renal
[31] = test system: MDA-MB-435
[32] = test system: OVCAR-4 ovarian
[33] = test system: COLO 205 colon
[34] = test system: HL-60(TB) leukemia
[35] = test system: SR leukemia
[36] = test system: SF-539 CNS
[37] = test system: UO-31 renal
[38] = test system: U251 CNS
[39] = test system: ACHN renal
[40] = test system: NCI-H522 lung
[41] = test system: SK-MEL-5 melanoma
[42] = test system: UACC-257 melanoma
[43] = test system: CAKI-1 renal
[44] = test system: HOP-62 NSCLC
[45] = test system: SK-OV-3 ovarian
[46] = test system: HT29 colon
[47] = test system: KM12 colon
[48] = test system: MDA-MB-231 breast
[49] = test system: HS 578T breast
[50] = test system: MOLT-4 leukemia
[51] = test system: CCRF-CEM leukemia
[52] = test system: T-47D breast
[53] = test system: K-562 leukemia
[54] = test system: LOX IMVI melanoma
[55] = test system: M14 melanoma
[56] = test system: SW-620 colon

Measured: TGI

COc1cc(O)cc(O)c1C(=O)CC(Cl)(Cl)Cl
> 100 µM: all assays above
